Laboratory results: US11674140B2, “Compositions and methods for treating facioscapulohumeral dystrophy” (THE CHILDREN'S MEDICAL CENTER CORPORATION, priority 2017, dated 2023)
Entries after “also recorded” stand apart in the source; their conditions may differ.

Assays:
DUX4 toxicity = assay: Caspase 3/7 activity assay (luciferase read-out) of DUX4-induced cell death; assay type: cell-based, human
Excerpt: FIGS. 14A and 14B illustrate a method for assaying cell death. FIG. 14A is a schematic diagram showing a method for assaying cell death by measuring Caspase 3/7 activity using a luciferase read-out.
FIG. 14B presents graphical data generated from the doxycycline-inducible assay.
The DUX4 gene encodes a transcription factor whose expression is rare, but extremely toxic. DUX4 transcription factor controls more than 100 early developmental genes. Misexpression of DUX4 is hypothesized to induce inappropriate expression of downstream genes to cause disease pathogenesis. […] Non-manifesting carriers of FSHD alleles who are found to express DUX4, point to the existence of genetic modifiers that may act to suppress DUX4 toxicity. The clinical, histopathological and molecular evidence for asymptomatic/non-manifesting carriers of FSHD is provided at FIGS. 1A-1F. As reported herein below, a genome-wide CRISPR loss-of-function library was used to identify genes that modulate DUX4 induced toxicity and act as genetic modifiers of FSHD (FIG. 1M). This powerful resource has enabled the assessment of the impact of all loss-of-function gene edits across the entire genome. This approach permitted the isolation of genes that influence survivability of DUX4 toxicity. These genes were validated in vitro by generation of individual knock-out lines, using a Caspase-3/7 assay to quantify reduced DUX4-induced apoptosis, and using inhibitor compounds to mimic gene knock-outs. These genes are also being evaluated in vivo.
The abundance of sgRNAs in each of the LOF cell lines was measured (FIG. 12). Each sgRNA is specific to the gene. Single gene knock-outs were generated using a lenti-CRISPR plasmid. […] To determine whether the results observed with Hif1a knockout could be recapitulated using an inhibitor of Hif1a, experiments with small compound inhibitors were carried out (FIGS. 15A, 15B, 16C, 16D). […] Herbimycin A is a benzoquinone drug (used for anti-cancer treatment) that binds and inhibits heat shock protein 90 (HSP90) chaperone (tyrosine kinase inhibitor) and is known to deplete dephosphorylated HIF1a. […]

DUX4 inducible cell line = assay: Cell death assay: caspase fluorescence (FITC) in DUX4 inducible cell line after doxycycline; assay type: cell-based; details: after 48 hours of doxycycline treatment
Description: FIG. 17A includes a series of micrographs. Fluorescence from labeled caspase is visible (fluorescein isothiocynate (FITC)) in a DUX4 inducible cell line after 48 hours of doxy cy cline treatment.
Cell death assay were then used to validate single knock-outs cell lines (FIGS. 17A-17C).

[1] = system: FSHD biomarkers MBDL3L3, TRIM42 and ZSCAN4; assay: Quantitative real-time PCR of FSHD biomarkers in patient myotubes; assay type: cell-based, human
Description: One common way to test potential therapies for FSHD is to measure a reduction in FSHD biomarker genes (FIG. 16B). […] Briefly, patient primary myoblasts (17A and 16A) were placed in differentiation media. At day four, drug compounds were added, and myotubes were harvested 24 hours later. RNA extraction and cDNA synthesis was performed. Quantitative real-time PCR for FSHD biomarkers levels of MBDL3L3, TRIM42 and ZSCAN4 was performed. Results indicated a significant reduction in biomarker levels for the majority of drugs tested.

DUX4-injected zebrafish = DUX4-injected zebrafish model of FSHD; assay type: in vivo; details: drug 24 hr post-injection; day 7; compared to DUX4-injected no drug control group
Excerpt: FSHD has proven to be a difficult disease to model in animals given the primate-specific origins of DUX4, its sporadic activation and mosaic expression, as well as the complex epigenetic components associated with the disease. Our published DUX4 zebrafish model was the first to recapitulate the muscle-eye-ear combination of phenotypes described in human FSHD (FIGS. 1N-A, 1N-B, 1N-C). […] These established DUX4 models of FSHD provide for functional follow-up experiments for candidate genes identified in CRISPR screens.
Drugs that show efficacy in vitro can be tested in a zebrafish model of FSHD. […] After injecting DUX4 into zebrafish, the test subjects were then treated with the four drug compounds 24 hr post-injection. Injected fish were categorized into affected or unaffected groups based on whole-body phenotype (FIG. 18A).

| SMILES | efficacy in vitro measured by caspase 3/7 activity (DUX4 toxicity) | caspase fluorescence (DUX4 inducible cell line) | efficacy in patient cell lines [1] | suppression of DUX4 toxicity (DUX4 toxicity; 20 uM) | percentage of affected fish (whole-body phenotype) (DUX4-injected zebrafish) | FSHD biomarker levels (MBDL3L3, TRIM42, ZSCAN4) ([1]; patient primary myoblasts 16A and 17A, drug added at day four of differentiation, harvested 24 hours later) |
| --- | --- | --- | --- | --- | --- | --- |
| O=c1cc(N2CCOCC2)oc2c(-c3ccccc3)cccc12 [LY294002, Ly294002] | showed efficacy in vitro | reduced caspase fluorescence | efficacy |  |  |  |
| CO[C@H]1[C@@H](OC)C[C@H](C)[C@@H](OC)C2=CC(=O)C=C(NC(=O)/C(C)=C/C=C\[C@H](OC)[C@@H](OC(N)=O)/C(C)=C/[C@@H]1C)C2=O [Herbimycin A] | showed efficacy in vitro | reduced caspase fluorescence | efficacy | good suppression of DUX4 toxicity | significantly reduced; also recorded: significantly decreased percentage of affected fish |  |
| COC(=O)c1ccc(O)c(NC(=O)COc2ccc(C34CC5CC(CC(C5)C3)C4)cc2)c1 [Hif1a inhibitor] |  |  |  |  |  | Dose-response reduction of biomarkers |
